Legend:
Format in all cases: cell-based
[1] = tested on: HRV A16; assay: HRV A16 CPE inhibition assay; details: Human rhinovirus sp.; HRV A16, cytopathic effect inhibition
Description: (§1) Bioactivity of the Compounds of the Invention was Determined Using the Following Methods. Determination of Drug Efficacy Against Picornaviruses Using Cytopathic Effect (CPE) Inhibition Assay
(§2) In the assay, HeLa (human cervical cancer cells), MRC-5 (human fetal lung fibroblast cells), and RD cells (derived from human rhabdomyosarcoma) were employed. For comparison, ribavirin (Riv), Pleconaril (pleco), and […] (BTA) were used as controls. Reagents were dissolved at a concentration of 10-40 mg/ml in 100% dimethyl sulfoxide (DMSO). Water-soluble reagents were dissolved in PBS (−) solution and stored at −20° C. On the day of the experiment, they were used in 3 fold to 5 fold concentrations in such a manner that the concentration of dimethyl sulfoxide in each well was between 0.5% and 1%.
(§3) Pharmaceutical efficacy was determined using a virus-induced cytopathic effect (CPE) inhibition assay. In this regard, after cells suitable for viruses were grown in 96-well plates, dilutions of viruses in DME supplemented with 2% FBS (DME/2% FBS) or MEM supplemented with 2% FBS (MEM/2% FBS) were inoculated in an amount of […] with a concentration corresponding to 100 CCID50 (50% cell culture infective dose) into each well of the plates, and incubated for 30 min-1 hr at 33° C. or 37° C. to allow the viruses to adsorb onto the cells. The culture medium was removed before aliquots of drug dilutions with various concentrations were added in an amount of 100 μl to each well. While HRV (human rhinovirus) was grown at 33° C., the other viruses were incubated in a 37° C. CO2 incubator for 2-3 days. Alternatively, the cells were cultured for 2-3 days without removal of the medium after they were added with 50 μl of each drug dilution having a 2-fold higher concentration and then with 50 μl of the virus dilution. Viruses were incubated in host HeLa cells at 37° C. for 2-3 days in DME/2% or MEM/2% FBS.
(§4) For HeLa cells, the drugs were measured for EC50 (50% maximal effective concentration), which is the concentration of a drug inducing a response halfway between the baseline and maximum, using an MTT assay. With regard to RD and MRC-5 cells, CPE was determined using FDA (Fluorescein diacetate) or MTT. In order to determine the effect of drug toxicity on efficacy results, at the time of inoculation with the virus, mock-infection was also included. A virus-free medium was added to a cell culture, which was then subjected to the same treatment as the mock-infected cells inoculated with the virus. That is, the medium was removed after one hour of incubation, and dilutions of drugs in the medium were added once more. Following incubation for 2-3 days, the cells were observed under a microscope and the drugs were determined for CC50 (50% cytotoxic concentration) at which 50% of the cells were killed, using an MTT assay in which counts of viable cells in mock-infected wells containing drugs were compared to those of viable cells in control wells containing no drugs. In an FDA hydrolysis assay, FDA was added to each well after removal of the medium, and incubated for 20-30 min before fluorescence intensity was measured using a spectrofluorometer to determine CPE in the same manner as in MTT.
(§5) In addition, antiviral effects can be calculated using Mathematical Formula 2 below: Antiviral Effect=[A(Drug/Virus)−A(Virus Control)/A(Cell control)−A(Virus Control)]
(§6) If the survival rate is 100%, its antiviral effect is 100% whereas if the survival rate is 0%, its antiviral effect is none. […]
(§7) Specifically, cells grown to confluence in 96-well plates were infected with 100 50% cell culture infected doses (CCID50) of virus. After an adsorption period of 2 hrs at 37° C., the virus was removed and serial dilutions of the compounds were added. […] After removal of the medium, 90 μl of a culture medium and 10 μl of MTS-phenazine methosulfate (Promega, Leiden, The Netherlands) were added to each well. […]

[2] = tested on: HRV B14; assay: HRV B14 CPE inhibition assay; details: Human rhinovirus sp.; HRV B14, cytopathic effect inhibition
Description: as §1, §2, §3, §4, §5, §6, §7

[3] = tested on: C15_C3 REPLICON; assay: C15_C3 replicon assay
[4] = Cytotoxicity (CC50) in mock-infected cells, MTT assay; details: human, HeLa cells (mock-infected), 50% cytotoxic concentration, read-out: CYTOTOX (CC50 μM)
Description: as §4
That is, the survival rate (% survival) of mock-infected cells for cytotoxicity measurement was calculated using the Mathematical Formula 1 below: Cell Drug=Survival by [A(Drug)−A(Background solution)/A(Cell control)−A(Background×100% Solution)]
While 100% cell survival means no cytotoxicity of the drug, the highest cytotoxicity is reflected by 0% cell survival. The 50% cytotoxic concentration was defined as the concentration required to reduce the cell number by 50%. This concentration of the drug is represented as CC50. Higher values mean lower cytotoxicity. […]
In Mathematical Formulae 3 and 4 above, • OD (CC) represents the OD of the background cell culture that is neither induced by a virus nor treated by chemical, • OD (VC) represents the OD of the control cell culture that is induced by a virus but not treated by chemical, • OD (Virus+Compound) represents the OD of the cell culture infected by a virus that has been treated with a concentrated compound, • OD (Compound) represents the OD of the cell culture that has been treated with a concentrated compound only, and • OD (Blank) represents the OD of the well to which only the cell culture has been added.
The effective concentration (EC50) represents the concentration of a drug at which 50% of cells are allowed to survive by CPE of an induced virus, and the cytotoxicity concentration (CC50) represents the concentration of a drug at which a compound has killed 50% of cells, and they were calculated by the logarithmic interpolation.

[5] = tested on: HRV A29; assay: HRV A29 CPE inhibition assay; details: Human rhinovirus sp.; HRV A29, cytopathic effect inhibition
Description: as §1, §2, §3, §4, §5, §6, §7

[6] = tested on: HRV A1B; assay: HRV A1B CPE inhibition assay; details: Human rhinovirus sp., cytopathic effect inhibition, read-out: HRV A1B_CPE (EC50 μM)
Description: as §1, §2, §3, §4, §5, §6, §7

Structure (SMILES) | EC50 [1] [µM] | EC50 [2] [µM] | EC50 [3] [µM] | CC50 [4] [µM] | EC50 [5] [µM] | EC50 [6] [µM]
C[C@@H]1C[C@@H]1c1ccc2c(c1)O[C@]1(O)c3cccc(N)c3C(=O)[C@]21NC(=O)CN1CCC1 [Example 2, N-((4bR,9bR)-1-amino-4b-hydroxy-7-((1S,2R)-2-methylcyclopropyl)-10-oxo-4b,10-dihydro-9bH-indeno[1,2-b]benzofuran-9b-yl)-2-(azetidin-1-yl)acetamide] | 0.092 | 0.016 | 0.853 | 27.3 |  | 
Cc1c(S(C)(=O)=O)c[nH]c1C(=O)NC12C(=O)c3c(N)cccc3C1(O)Oc1cc(C3CCC3C)ccc12 (stereo not drawn) [Example 7, N-(1-amino-4b-hydroxy-7-(2-methylcyclobutyl)-10-oxo-4b,10-dihydro-9bH-indeno[1,2-b]benzofuran-9b-yl)-3-methyl-4-(methylsulfonyl)-1H-pyrrole-2-carboxamide] | 0.065 |  | 1.62 | 12 |  | 
Cc1c(S(C)(=O)=O)c[nH]c1C(=O)NC12C(=O)c3c(N)cccc3C1(O)Oc1cc([C@@H]3C[C@@H]3C)ccc12 (stereo partly drawn) [Example 16, N-(1-amino-4b-hydroxy-7-((1R,2S)-2-methylcyclopropyl)-10-oxo-4b,10-dihydro-9bH-indeno[1,2-b]benzofuran-9b-yl)-3-methyl-4-(methylsulfonyl)-1H-pyrrole-2-carboxamide] | 0.199 | 0.016 | 1.82 | 37.7 | 0.104 | 
Cc1cc(S(=O)(=O)N2CCN(C)CC2)[nH]c1C(=O)N[C@]12C(=O)c3c(N)cccc3[C@@]1(O)Oc1cc(OC(C)C)ccc12 (single isomer, unassigned) [Example 19] | 0.022 |  | 0.876 | 48.3 | 0.046 | 0.016
C[C@H](c1ccc2c(c1)O[C@]1(O)c3cccc(N)c3C(=O)[C@]21NC(=O)[C@H]([C@H](C)O)N(C)C)C1CC1 [Example 15, (2S,3S)—N-((4bR,9bR)-1-amino-7-((S)-1-cyclopropylethyl)-4b-hydroxy-10-oxo-4b,10-dihydro-9bH-indeno[1,2-b]benzofuran-9b-yl)-2-(dimethylamino)-3-hydroxybutanamide] | 0.213 | 0.016 | 0.264 | 45.2 |  | 
Cc1c(S(C)(=O)=O)c[nH]c1C(=O)NC12C(=O)c3c(N)cccc3C1(O)Oc1cc([C@]3(C)C[C@@H]3C)ccc12 (stereo partly drawn) [Example 6, N-(1-amino-7-((1R,2S)-1,2-dimethylcyclopropyl)-4b-hydroxy-10-oxo-4b,10-dihydro-9bH-indeno[1,2-b]benzofuran-9b-yl)-3-methyl-4-(methylsulfonyl)-1H-pyrrole-2-carboxamide] | 0.046 | 0.016 | 1.18 | 19.1 |  | 
Cc1cc(S(=O)(=O)N2CCN(C)CC2)[nH]c1C(=O)NC12C(=O)c3c(N)cccc3C1(O)Oc1cc([C@H]3C[C@@H]3C)ccc12 (mixture of isomers) [Example 9, N-(1-Amino-4b-hydroxy-7-((trans)-2-methylcyclopropyl)-10-oxo-4b,10-dihydro-9bH-indeno[1,2-b]benzofuran-9b-yl)-3-methyl-5-((4-methylpiperazin-1-yl)sulfonyl)-1H-pyrrole-2-carboxamide] | 0.02 | 0.016 | 1.09 | 25.6 |  | 
Cc1[nH]c(C(=O)NC23C(=O)c4c(N)cccc4C2(O)Oc2cc(C(C)C)ccc23)c(C)c1S(N)(=O)=O (stereo not drawn) [Example 25, N-(1-amino-4b-hydroxy-7-isopropyl-10-oxo-4b,10-dihydro-9bH-indeno[1,2-b]benzofuran-9b-yl)-3,5-dimethyl-4-sulfamoyl-1H-pyrrole-2-carboxamide] | 0.14 | 0.016 | 2.04 | 27 |  | 
Cc1c(S(C)(=O)=O)c[nH]c1C(=O)N[C@]12C(=O)c3c(N)cccc3[C@@]1(O)Oc1cc([C@@H]3C[C@H]3C)ccc12 [Example 1, N-((4bR,9bR)-1-amino-4b-hydroxy-7-((1R,2R)-2-methylcyclopropyl)-10-oxo-4b,10-dihydro-9bH-indeno[1,2-b]benzofuran-9b-yl)-3-methyl-4-(methylsulfonyl)-1H-pyrrole-2-carboxamide] | 0.228 | 0.016 | 4 | 34.7 | 0.071 | 
Cc1cc(S(=O)(=O)N2CC[C@H](N(C)C)C2)[nH]c1C(=O)NC12C(=O)c3c(N)cccc3C1(O)Oc1cc([C@H]3C[C@@H]3C)ccc12 (mixture of isomers) [Example 11, N-(1-amino-4b-hydroxy-7-((1S,2S)-2-methylcyclopropyl)-10-oxo-4b,10-dihydro-9bH-indeno[1,2-b]benzofuran-9b-yl)-5-(((S)-3-(dimethylamino)pyrrolidin-1-yl)sulfonyl)-3-methyl-1H-pyrrole-2-carboxamide] | 0.023 | 0.016 | 2.54 | 12.1 |  | 
C[C@H](O)[C@@H](C(=O)NC12C(=O)c3c(N)cccc3C1(O)Oc1cc([C@H](C)C3CC3)ccc12)N(C)C (stereo partly drawn) [Example 10, (2S,3S)—N-(1-amino-7-((R)-1-cyclopropylethyl)-4b-hydroxy-10-oxo-4b,10-dihydro-9bH-indeno[1,2-b]benzofuran-9b-yl)-2-(dimethylamino)-3-hydroxybutanamide] | 0.661 | 0.016 | 0.632 | 29.2 |  | 
Cc1c(C(=O)NC23C(=O)c4c(N)cccc4C2(O)Oc2cc(C(C)C)ccc23)[nH]c(S(=O)(=O)NCCN(C)C)c1C (stereo not drawn) [Example 4, N-(1-amino-4b-hydroxy-7-isopropyl-10-oxo-4b,10-dihydro-9bH-indeno[1,2-b]benzofuran-9b-yl)-5-(N-(2-(dimethylamino)ethyl)sulfamoyl)-3,4-dimethyl-1H-pyrrole-2-carboxamide] | 0.056 | 0.016 | 2.39 | 8.58 |  | 
CCC(C)c1ccc2c(c1)OC1(O)c3cccc(N)c3C(=O)C21NC(=O)c1[nH]cc(S(C)(=O)=O)c1C (stereo not drawn) [Example 23, N-(1-amino-7-(sec-butyl)-4b-hydroxy-10-oxo-4b,10-dihydro-9bH-indeno[1,2-b]benzofuran-9b-yl)-3-methyl-4-(methylsulfonyl)-1H-pyrrole-2-carboxamide] | 0.071 | 0.016 | 0.633 | 22.4 |  | 

Source: US12286423B2, “Antiviral 1,3-di-oxo-indene compounds” (Novartis AG, priority 2020, dated 2025)
